Experimental findings from patent US10208089B2, “Modulation of complement activity” (priority 2014, dated 2019) are described below.

Starred links: 1 amine or outer side, 2 acyl side, 3 side chain; linkers in the order of their positions; H or OH if unused. Positions of bridges follow the written chain, without caps; N, C: chain ends. Non-standard residues stand in square brackets, D forms with d. Residues, ends and D or L forms follow the SMILES beside them. Trp(7-aza) = N[C@@H](Cc1c[nH]c2ncccc12)C(=O)O; Trp(1-Me) = Cn1cc(C[C@H](N)C(=O)O)c2ccccc21; mXylylene = c1cc(C[*:1])cc(C[*:2])c1; pXylylene = c1cc(C[*:2])ccc1C[*:1]; dPhg = N[C@@H](C(=O)O)c1ccccc1; Phg = N[C@H](C(=O)O)c1ccccc1; Tle = CC(C)(C)[C@H](N)C(=O)O; NMeS = CN[C@@H](CO)C(=O)O; hCys = N[C@@H](CCS)C(=O)O; Nva = CCC[C@H](N)C(=O)O; Sar = CNCC(=O)O Where only a bound is given, the exact number is not on record here.

The target of this experiment is C5 (Homo sapiens, UniProt P01031). Description: Human hemolysis assay (RBC lysis assay using complete human sera). It is filed as cell-based. Set-up: with complete human sera (Complement Technology, Tyler Tex.) and polypeptides; tissue Complement Technology, Tyler Tex; host or cells: complete human serum.
C5, sequence (P01031 19-1676): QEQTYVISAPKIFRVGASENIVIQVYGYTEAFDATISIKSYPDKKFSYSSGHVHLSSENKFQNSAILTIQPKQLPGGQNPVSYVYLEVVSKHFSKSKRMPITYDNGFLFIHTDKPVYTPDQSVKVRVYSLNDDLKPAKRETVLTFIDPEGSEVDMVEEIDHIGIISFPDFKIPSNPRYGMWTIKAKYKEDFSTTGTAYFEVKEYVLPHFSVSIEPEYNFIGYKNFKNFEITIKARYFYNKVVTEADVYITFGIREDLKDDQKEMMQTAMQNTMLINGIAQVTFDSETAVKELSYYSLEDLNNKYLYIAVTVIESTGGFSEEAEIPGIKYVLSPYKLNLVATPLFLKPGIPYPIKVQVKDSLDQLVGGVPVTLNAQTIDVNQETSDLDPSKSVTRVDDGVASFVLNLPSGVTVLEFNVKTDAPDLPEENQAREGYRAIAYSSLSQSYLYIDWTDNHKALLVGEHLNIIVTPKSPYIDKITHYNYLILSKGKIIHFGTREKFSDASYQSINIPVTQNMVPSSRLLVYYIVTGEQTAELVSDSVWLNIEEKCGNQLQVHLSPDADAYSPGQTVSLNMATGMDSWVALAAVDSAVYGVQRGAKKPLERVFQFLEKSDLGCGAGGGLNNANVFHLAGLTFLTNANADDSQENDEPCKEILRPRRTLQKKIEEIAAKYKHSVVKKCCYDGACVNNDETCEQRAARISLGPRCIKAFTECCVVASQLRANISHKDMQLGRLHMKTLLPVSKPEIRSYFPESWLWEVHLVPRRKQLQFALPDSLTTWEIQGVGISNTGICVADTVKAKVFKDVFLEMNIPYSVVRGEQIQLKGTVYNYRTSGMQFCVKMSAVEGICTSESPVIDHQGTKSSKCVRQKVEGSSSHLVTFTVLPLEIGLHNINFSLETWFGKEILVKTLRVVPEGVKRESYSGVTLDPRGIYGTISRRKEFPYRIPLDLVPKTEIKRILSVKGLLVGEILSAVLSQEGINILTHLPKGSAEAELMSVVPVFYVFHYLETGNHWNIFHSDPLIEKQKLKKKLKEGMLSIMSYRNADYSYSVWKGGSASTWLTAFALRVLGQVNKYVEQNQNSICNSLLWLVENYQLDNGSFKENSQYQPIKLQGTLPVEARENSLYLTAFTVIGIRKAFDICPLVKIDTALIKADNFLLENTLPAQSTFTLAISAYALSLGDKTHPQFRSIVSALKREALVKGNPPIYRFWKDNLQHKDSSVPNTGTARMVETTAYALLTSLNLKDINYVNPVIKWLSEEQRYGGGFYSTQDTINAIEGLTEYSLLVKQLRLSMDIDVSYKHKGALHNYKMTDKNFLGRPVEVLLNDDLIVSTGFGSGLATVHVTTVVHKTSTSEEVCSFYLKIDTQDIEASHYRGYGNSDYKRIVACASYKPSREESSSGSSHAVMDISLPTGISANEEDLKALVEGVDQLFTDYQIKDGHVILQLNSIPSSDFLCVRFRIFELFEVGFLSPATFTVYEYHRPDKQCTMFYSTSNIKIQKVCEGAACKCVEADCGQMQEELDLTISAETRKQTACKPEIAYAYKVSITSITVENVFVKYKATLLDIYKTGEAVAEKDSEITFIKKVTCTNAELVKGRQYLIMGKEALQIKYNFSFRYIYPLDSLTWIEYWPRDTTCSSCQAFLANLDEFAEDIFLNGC
The mark [1] stands for this setting: inhibition of lysis of antibody-sensitized sheep erythrocytes, complete human sera.

One may read the IC50 as the midpoint of a concentration-inhibition curve. Consider `CC(=O)N[C@H]1CSCc2cccc(c2)CSC[C@@H](C(=O)N[C@@H](CC(=O)O)C(=O)N[C@H](C(=O)N[C@@H](Cc2ccc(O)cc2)C(=O)N[C@@H](Cc2c[nH]c3ccccc23)C(=O)N[C@@H](CCC(=O)O)C(=O)N[C@@H](Cc2ccccc2)C(N)=O)C(C)(C)C)NC(=O)[C@H](Cc2ccccc2)NC(=O)[C@H](CCCNC(=N)N)NC(=O)[C@H](CCC(=O)O)NC(=O)[C@H](C(C)(C)C)NC1=O` [Compound R3139, [mXylyl(1,6)]Ac-C-Tbg-E-R-F-C-D-Tbg-Y-W-E-F-NH2] (Ac-C[Tle]ERFCD[Tle]YWEF-NH2; linker 1-6 via mXylylene), for which the half-maximal inhibitory concentration (IC50) under setting [1] came to 0.0972 µM.

For the compound `CCC[C@H](NC(C)=O)C(=O)N[C@H]1CSCc2cccc(c2)CSC[C@@H](C(=O)N[C@@H](CCC(=O)O)C(=O)N[C@@H](Cc2ccc(O)cc2)C(=O)N2CCC[C@H]2C(=O)N[C@H](C(=O)N[C@H](C(N)=O)C(C)(C)C)c2ccccc2)NC(=O)[C@H](CCC(=O)O)NC(=O)[C@H](C(C)(C)C)NC(=O)[C@H](CC(N)=O)NC(=O)[C@H](CC(N)=O)NC(=O)[C@H](Cc2ccc(O)cc2)NC1=O` [Compound R3129, [mXylyl(2,8)]Ac-Nvl-C-Y-N-N-Tbg-E-C-E-Y-P-Phg-Tbg-NH2] (Ac-[Nva]CYNN[Tle]ECEYP[Phg][Tle]-NH2; linker 2-8 via mXylylene), the IC50 (7-azatryptophan variant polypeptides of R3002, inhibition of red blood cell lysis) was > 100 µM and the half-inhibitory concentration (IC50) under setting [1] was > 100 µM.

As to `CCC[C@H](NC(C)=O)C(=O)N[C@H]1CSCc2cccc(c2)CSC[C@@H](C(=O)N[C@@H](C)C(N)=O)NC(=O)[C@H](Cc2c[nH]cn2)NC(=O)[C@H](CO)N(C)C(=O)[C@H](Cc2ccc(O)cc2)NC(=O)[C@H](CCC(=O)O)NC(=O)[C@H](Cc2c[nH]c3ncccc23)NC(=O)[C@H]([C@@H](C)O)NC(=O)[C@H](c2ccccc2)NC1=O` [Compound R3039, [mXylyl(2,10)]Ac-Nvl-C-Phg-T-azaTrp-E-Y-(N-Me)S-H-C-A-NH2] (Ac-[Nva]C[Phg]T[Trp(7-aza)]EY[NMeS]HCA-NH2; linker 2-10 via mXylylene), the concentration for half-maximal inhibition (IC50) under setting [1] is 0.24 µM.

Take `CC(=O)N[C@H]1CSCc2cccc(c2)CSC[C@@H](C(=O)N[C@@H](Cc2c[nH]c3ccccc23)C(=O)N[C@@H](CCC(=O)O)C(=O)N[C@@H](Cc2ccccc2)C(N)=O)NC(=O)[C@H](Cc2ccccc2)NC(=O)[C@H](CCCNC(=N)N)NC(=O)[C@H](CCC(=O)O)NC(=O)[C@H](C(C)C)NC1=O` [Compound R3125, [mXylyl(1,6)]Ac-C-V-E-R-F-C-W-E-F-NH2] (Ac-CVERFCWEF-NH2; linker 1-6 via mXylylene): the IC50 was > 100 µM under setting [1] and > 100 µM (variants of R3021 with internal amino acid deletions, inhibition of red blood cell lysis). Further, the “ability to inhibit red blood cell lysis compared with the parent polypeptide (in words)” value (variants of R3021, R3002 or R3008) was “decrease in the ability”.

With `CCC[C@H](NC(C)=O)C(=O)N[C@H]1CSCc2cccc(c2)CSC[C@@H](C(N)=O)NC(=O)[C@H](CCC)NC(=O)[C@H](c2ccccc2)NC(=O)[C@@H]2CCCN2C(=O)[C@H](Cc2ccc(O)cc2)NC(=O)[C@H](CCC(=O)O)NC(=O)[C@H](Cc2c[nH]c3ncccc23)NC(=O)[C@H](Cc2ccc(O)cc2)NC(=O)[C@H](C(C)(C)C)NC(=O)[C@H](CC(N)=O)NC(=O)[C@H](CCC(=O)O)NC(=O)[C@H](Cc2ccc(O)cc2)NC1=O` [Compound R3019, [mXylyl(2,14)]Ac-Nvl-C-Y-E-N-Tbg-Y-azaTrp-E-Y-P-Phg-Nvl-C-NH2] (Ac-[Nva]CYEN[Tle]Y[Trp(7-aza)]EYP[Phg][Nva]C-NH2; linker 2-14 via mXylylene), under setting [1], the IC50 came to 1.32 µM.

Regarding `CCC[C@H](NC(=O)[C@@H]1CSCc2cccc(c2)CSC[C@H](NC(=O)[C@H](CCC)NC(C)=O)C(=O)N[C@@H](c2ccccc2)C(=O)N[C@@H]([C@@H](C)O)C(=O)N[C@@H](Cc2c[nH]c3ncccc23)C(=O)N[C@@H](CCC(=O)O)C(=O)N[C@@H](Cc2ccc(O)cc2)C(=O)N(C)[C@@H](CO)C(=O)N[C@@H](C)C(=O)N1)C(N)=O` [Compound R3038, [mXylyl(2,10)]Ac-Nvl-C-Phg-T-azaTrp-E-Y-(N-Me)S-A-C-Nvl-NH2] (Ac-[Nva]C[Phg]T[Trp(7-aza)]EY[NMeS]AC[Nva]-NH2; linker 2-10 via mXylylene), under setting [1], the concentration for half-maximal inhibition (IC50) stood at 0.14 µM.

On to `CSCC[C@H](N)C(=O)N[C@H]1CSCc2cccc(c2)CSC[C@@H](C(=O)N[C@@H](CC(=O)O)C(=O)N[C@H](C(N)=O)C(C)C)NC(=O)[C@H](Cc2ccccc2)NC(=O)[C@H](CCCNC(=N)N)NC(=O)[C@H](CCC(=O)O)NC(=O)[C@H](C(C)C)NC1=O` [Compound R3046, [mXylyl(2,7)]M-C-V-E-R-F-C-D-V-NH2] (H-MCVERFCDV-NH2; linker 2-7 via mXylylene), for which the 50% inhibitory concentration (IC50) (C-terminally truncated polypeptide variants of R3021, inhibition of red blood cell lysis) was > 100 µM and the 50% inhibitory concentration (IC50) under setting [1] was > 100 µM.

For the compound `CCC[C@H](NC(=O)[C@@H]1CCSCc2ccc(cc2)CSC[C@H](NC(=O)[C@H](CCC)NC(C)=O)C(=O)N[C@@H](c2ccccc2)C(=O)N[C@@H]([C@@H](C)O)C(=O)N[C@@H](Cc2c[nH]c3ncccc23)C(=O)N[C@@H](CCC(=O)O)C(=O)N[C@@H](Cc2ccc(O)cc2)C(=O)N(C)[C@@H](CO)C(=O)N[C@@H](Cc2c[nH]cn2)C(=O)N1)C(N)=O` [Compound R3106, [pXylyl(2,10)]Ac-Nvl-C-Phg-T-azaTrp-E-Y-(N-Me)S-H-homoC-Nvl-NH2] (Ac-[Nva]C[Phg]T[Trp(7-aza)]EY[NMeS]H[hCys][Nva]-NH2; linker 2-10 via pXylylene), under setting [1], the IC50 is > 5 µM.

Turning to `CCC[C@H](NC(=O)CN(C)C(=O)[C@H](Cc1ccc(O)cc1)NC(=O)[C@H](CCC(=O)O)NC(=O)[C@H](Cc1c[nH]c2ncccc12)NC(=O)[C@H](Cc1ccc(O)cc1)NC(=O)[C@@H](NC(=O)[C@H](CC(N)=O)NC(=O)[C@H](CCC(=O)O)NC(=O)[C@H](Cc1ccc(O)cc1)NC(C)=O)C(C)(C)C)C(=O)N(C)[C@@H](CO)C(N)=O` [Compound R3006, Ac-Y-E-N-Tbg-Y-azaTrp-E-Y-(N-Me)G-Nvl-(N-Me)S-NH2] (Ac-YEN[Tle]Y[Trp(7-aza)]EY[Sar][Nva][NMeS]-NH2), under setting [1], the IC50 came out at 0.267 µM.

With `CCC[C@H](NC(=O)[C@@H]1CSCc2cccc(c2)CSC[C@H](NC(=O)[C@H](CCC)NC(C)=O)C(=O)N[C@@H](c2ccccc2)C(=O)N[C@@H]([C@@H](C)O)C(=O)N[C@@H](Cc2cn(C)c3ccccc23)C(=O)N[C@@H](CCC(=O)O)C(=O)N[C@@H](Cc2ccc(O)cc2)C(=O)N(C)[C@@H](CO)C(=O)N[C@@H](C)C(=O)N1)C(N)=O` [Compound R3109, [mXylyl(2,10)]Ac-Nvl-C-Phg-T-(1-Me-W)-E-Y-(N-Me)S-A-C-Nvl-NH2] (Ac-[Nva]C[Phg]T[Trp(1-Me)]EY[NMeS]AC[Nva]-NH2; linker 2-10 via mXylylene), the concentration for half-maximal inhibition (IC50) was > 100 µM (7-azatryptophan variant polypeptides of R3008, inhibition of red blood cell lysis) and > 100 µM under setting [1].

On to `CCC[C@H](NC(=O)[C@@H](NC(=O)[C@@H]1CCCN1C(=O)[C@H](Cc1ccc(O)cc1)NC(=O)[C@H](CCC(=O)O)NC(=O)[C@H](Cc1c[nH]c2ncccc12)NC(=O)[C@H](Cc1ccc(O)cc1)NC(=O)[C@@H](NC(=O)[C@H](C)NC(=O)[C@@H]1CSCc2cccc(c2)CSC[C@H](NC(C)=O)C(=O)N[C@@H](C(C)C)C(=O)N[C@@H](CCC(=O)O)C(=O)N[C@@H](CCCNC(=N)N)C(=O)N[C@@H](Cc2ccccc2)C(=O)N1)C(C)(C)C)c1ccccc1)C(N)=O` [Compound R3157, [mXylyl(1,6)]Ac-C-V-E-R-F-C-A-Tbg-Y-azaTrp-E-Y-P-Phg-Nvl-NH2] (Ac-CVERFCA[Tle]Y[Trp(7-aza)]EYP[Phg][Nva]-NH2; linker 1-6 via mXylylene), for which the IC50 under setting [1] came to 0.0845 µM.

Regarding `CCC[C@H](NC(=O)[C@@H](NC(=O)[C@@H]1CCCN1C(=O)[C@H](Cc1ccc(O)cc1)NC(=O)[C@H](CCC(=O)O)NC(=O)[C@H](Cc1c[nH]c2ncccc12)NC(=O)[C@H](Cc1ccc(O)cc1)NC(=O)[C@@H](NC(=O)[C@H](CC(=O)O)NC(=O)[C@@H]1CSCc2cccc(c2)CSC[C@H](NC(C)=O)C(=O)N[C@@H](C(C)C)C(=O)N[C@@H](C)C(=O)N[C@@H](CCCNC(=N)N)C(=O)N[C@@H](Cc2ccccc2)C(=O)N1)C(C)(C)C)c1ccccc1)C(N)=O` [Compound R3150, [mXylyl(1,6)]Ac-C-V-A-R-F-C-D-Tbg-Y-azaTrp-E-Y-P-Phg-Nvl-NH2] (Ac-CVARFCD[Tle]Y[Trp(7-aza)]EYP[Phg][Nva]-NH2; linker 1-6 via mXylylene), the half-inhibitory concentration (IC50) under setting [1] came to 0.037 µM.

Take `CCC[C@H](NC(=O)[C@H](NC(=O)[C@@H]1CCCN1C(=O)[C@H](Cc1ccc(O)cc1)NC(=O)[C@H](CCC(=O)O)NC(=O)[C@H](Cc1c[nH]c2ncccc12)NC(=O)[C@H](Cc1ccc(O)cc1)NC(=O)[C@@H](NC(=O)[C@H](CC(=O)O)NC(=O)[C@@H]1CSCc2cccc(c2)CSC[C@H](NC(C)=O)C(=O)N[C@@H](C(C)C)C(=O)N[C@@H](CCC(=O)O)C(=O)N[C@@H](C)C(=O)N[C@@H](Cc2ccccc2)C(=O)N1)C(C)(C)C)c1ccccc1)C(N)=O` [Compound R3154, [mXylyl(1,6)]Ac-C-V-E-A-F-C-D-Tbg-Y-azaTrp-E-Y-P-(D-Phg)-Nvl-NH2] (Ac-CVEAFCD[Tle]Y[Trp(7-aza)]EYP[dPhg][Nva]-NH2; linker 1-6 via mXylylene): the IC50 under setting [1] is 0.592 µM.

For the compound `CCC[C@H](NC(=O)[C@@H]1CSCc2cccc(c2)CSC[C@H](NC(=O)[C@H](CCC)NC(C)=O)C(=O)N[C@@H](c2ccccc2)C(=O)N[C@@H]([C@@H](C)O)C(=O)N[C@@H](Cc2c[nH]c3ncccc23)C(=O)N[C@@H](C)C(=O)N[C@@H](Cc2ccc(O)cc2)C(=O)N(C)[C@@H](CO)C(=O)N[C@@H](Cc2c[nH]cn2)C(=O)N1)C(N)=O` [Compound R3035, [mXylv1(2,10)]Ac-Nvl-C-Phg-T-azaTrp-A-Y-(N-Me)S-H-C-Nvl-NH2] (Ac-[Nva]C[Phg]T[Trp(7-aza)]AY[NMeS]HC[Nva]-NH2; linker 2-10 via mXylylene), under setting [1], the IC50 is > 50 µM.
